Assays:
[1] = test system: ZIKV; assay: ZIKV envelope (E) protein expression in Hs27 cells by flow cytometry; assay type: cell-based, Zika Virus; conditions: MOI 5, 24 hpi; for Cells expressing ZIKV envelope (E) protein: 10 µM before and after infection, DMSO 15%
Procedure: The MR766 strain of Zika Virus (ZIKV) (ATCC-VR84, Manassas, VA, USA) was grown and titered at 37 °C using Vero cells as previously described. Infections were carried out in DMEM containing 10% BSA for 1 h. Cells were then washed with PBS and cultured in DMEM containing 10% HI FBS.
For cytotoxicity assays, cells were stained with propidium iodide (PI) at a dilution of 1:100. Cell viability was determined via flow cytometry using the CytoFLEX (Beckman Coulter, Brea, CA, USA). CytExpert software (Beckman Coulter, version 2.4) was used to analyze independent events. PIV5 infection was monitored using flow cytometry via the FITC channel by analyzing GFP expression of individual cells. ZIKV infection was monitored utilizing Flavivirus group antigen–antibody (D1-4G2-4-15; Novus Biologicals, Littleton, CO, USA) staining for the ZIKV envelope protein. Cells were fixed and permeabilized using eBioscience Intracellular Fixation and Permeabilization Buffer (Invitrogen, Thermo Fisher Scientific, MA, USA) according to the manufacturer’s instructions. Secondary staining was performed using an anti-Alexa Fluor 488 (AF488) antibody (Invitrogen, Thermo Fisher Scientific, MA, USA). OC43 infection was monitored utilizing a primary antibody targeted toward the OC43 nucleocapsid protein (NP, MAB9013, Sigma-Aldrich, St. Louis, MO, USA). Secondary staining was performed using an AF488 antibody. Cells were fixed and permeabilized as previously described. LACV infection was monitored utilizing an anti-LACV Gc 807.31ab antibody kindly provided by Andrew Pekosv. Secondary staining was performed using an AF488 antibody. Cells were fixed and permeabilized as previously described.
To expand these findings, we evaluated whether these top-performing chalcones inhibited the replication of other RNA viruses. Briefly described, Hs27 cells were left untreated, treated with DMSO as a control, or treated with the chalcones 8a, 8o, or 8p at 10 μM for 24 h. Cells were then infected with the Bunyavirus LACV, the Flavivirus ZIKV, or the Coronavirus OC43 at high MOIs, as listed in Figure 10. […]

[2] = test system: OC43; assay: Coronavirus OC43 NP protein expression in Hs27 cells by flow cytometry; assay type: cell-based, Human Coronavirus OC43; conditions: MOI 50, 24 hpi; for Cells expressing OC43 NP protein: 10 µM before and after infection, DMSO ~65%
Procedure: Human Coronavirus OC43 (ATCC, catalog number VR-1558) was grown in a human colorectal adenocarcinoma cell line (HCT-8; ATCC, Manassas, Virginia, catalog #CCL-244) at 33 °C as previously described. OC43 titers were determined at 33 °C via 50% Tissue Culture Infectious Dose assays (TCID50) on confluent human rhabdomyosarcoma (RD; ATCC, Manassas, Virginia, catalog # CCL-136) cells in 96-well plates as previously described. Infections were carried out in DMEM containing 10% BSA for 1 h at 33 °C. Cells were then washed with PBS, cultured in DMEM supplemented with 2% HI FBS, and incubated at 33 °C.
For cytotoxicity assays, cells were stained with propidium iodide (PI) at a dilution of 1:100. Cell viability was determined via flow cytometry using the CytoFLEX (Beckman Coulter, Brea, CA, USA). CytExpert software (Beckman Coulter, version 2.4) was used to analyze independent events. PIV5 infection was monitored using flow cytometry via the FITC channel by analyzing GFP expression of individual cells. ZIKV infection was monitored utilizing Flavivirus group antigen–antibody (D1-4G2-4-15; Novus Biologicals, Littleton, CO, USA) staining for the ZIKV envelope protein. Cells were fixed and permeabilized using eBioscience Intracellular Fixation and Permeabilization Buffer (Invitrogen, Thermo Fisher Scientific, MA, USA) according to the manufacturer’s instructions. Secondary staining was performed using an anti-Alexa Fluor 488 (AF488) antibody (Invitrogen, Thermo Fisher Scientific, MA, USA). OC43 infection was monitored utilizing a primary antibody targeted toward the OC43 nucleocapsid protein (NP, MAB9013, Sigma-Aldrich, St. Louis, MO, USA). Secondary staining was performed using an AF488 antibody. Cells were fixed and permeabilized as previously described. LACV infection was monitored utilizing an anti-LACV Gc 807.31ab antibody kindly provided by Andrew Pekosv. Secondary staining was performed using an AF488 antibody. […]
To expand these findings, we evaluated whether these top-performing chalcones inhibited the replication of other RNA viruses. […]

[3] = test system: mTOR signaling; assay: Western blot of prps6 and rps6 as readouts of mTOR signaling in PANC-1 cells; assay type: cell-based; conditions: 72 h, chalcones 10 µM, rapamycin 10 nM
Procedure: PANC-1 cells were cultured in 6-well dishes and were lysed using modified radioimmunoprecipitation assay (RIPA) buffer (20 mM HEPES, pH 7.0, 150 mM NaCl, 1 mM EDTA, 1% NP-40, 1% deoxycholate, and 0.1% sodium dodecyl sulfate [SDS]) containing a complete protease inhibitor cocktail (Roche, Mannheim, Germany) and PhosSTOP phosphatase inhibitor cocktail (Roche, Mannheim, Germany). Protein concentrations were determined using the bicinchoninic acid (BCA) protein assay kit (Pierce, Rockford, IL, USA) according to manufacturer’s instructions. Cell lysates with 25 µg of protein were resolved on 12% sodium dodecyl sulfate-polyacrylamide gel electrophoresis (SDS-PAGE) gels and electro-transferred onto polyvinylidene difluoride (PVDF) membranes (Trans-Blot Turbo Transfer System, BioRad, Hercules, CA, USA). The samples were probed with rabbit monoclonal antibodies for the P-rps6 (1:1000) protein (Cell Signaling, Danvers, MA, USA) and mouse monoclonal antibodies for rps6 (1:1000) (Cell Signaling) and β-actin (1:5000) (Abcam, Waltham, MA, USA) proteins. Blots were visualized using anti-rabbit or anti-mouse horseradish peroxidase (HRP)-conjugated antibodies (Cell Signaling) and chemiluminescence reagent (Thermo Fisher Scientific, Waltham, MA, USA).
PANC-1 cells were chosen for this study as they are highly dependent on mTOR for their growth. PANC-1 cells were cultured and treated with the positive control rapamycin (10 nM) and chalcones NM5, 8a, 8o, 8s, 8v, and 8w (10 μM) for 72 h. Rapamycin and the chalcones were dissolved in 100% DMSO and dosed so that the final DMSO concentration was 0.1%. Cell lysates were collected and analyzed to determine the relative protein expression levels of rps6, prps6, and β-actin as a loading control (see Figure 12).

[4] = test system: Vero cells; assay: Propidium iodide (PI) staining cytotoxicity in Vero cells by flow cytometry; assay type: cell-based; conditions: 24 h, concentration giving 10% PI+ cells
Procedure: We also extended the analysis of chalcone anti-viral effects to the widely used Vero cell line. […] The quotients of these values were determined to compare the compounds directly while accounting for both cytotoxicity and efficacy against PIV5.

[5] = test system: PIV5-GFP; assay: Western blotting for PIV5 NP and P proteins in infected Hs27 cells; assay type: cell-based, parainfluenza virus 5; conditions: 10 µM before and after infection; high MOI; lysates at 24 hpi
Source text: Hs27 (human skin fibroblast) cells cultured in 6-well dishes were lysed using protein lysis buffer. Cell lysates were resolved on 12% sodium dodecyl sulfate-polyacrylamide gel electrophoresis (SDS-PAGE) gels and transferred to nitrocellulose membranes (Bio-Rad, Hercules, CA, USA). After normalizing samples via western blotting for β-actin (1:20,000 dilution, catalog number A5316, Sigma-Aldrich, St. Louis, MO, USA), samples were probed with rabbit polyclonal antibodies for the PIV5 NP (1:2000) and P proteins (1:2000). Blots were visualized using anti-mouse horseradish peroxidase (HRP)-conjugated antibodies (Sigma-Aldrich) and chemiluminescence (Thermo Fisher Scientific).
The above experiments utilized GFP expression and flow cytometry as an assay for observing the effects of chalcones on viral protein expression. To extend this analysis to bona fide viral proteins, cells were left untreated, DMSO-treated, or treated with the chalcone 8o at 10 μM for 24 h. Cells were then infected with PIV5-GFP at a high MOI and then cultured in control media or media supplemented with 8o.

[6] = test system: human immunodeficiency virus (HIV); design: method as in PMID 27161874; conditions: cited from earlier work

| Compound | prps6 expression relative to DMSO control [3] | total rps6 protein expression relative to DMSO control [3] | PI MTC [4] [µM] | further results |
| --- | --- | --- | --- | --- |
| COc1ccccc1/C=C/C(=O)c1ccccc1O [Chalcone 8a] | no significant change | no significant difference |  | Inhibition of viral gene expression, ZIKV ([1]; 10 µM): did not inhibit viral gene expression; Effect on OC43 NP expression ([2]; 10 µM): significant inhibitory effects |
| COc1ccc(Br)cc1/C=C/C(=O)c1c(O)cccc1OC [Chalcone 8f] |  |  | 6.8 |  |
| COc1ccc(Br)cc1/C=C/C(=O)c1c(O)cccc1OCc1ccccc1 [Chalcone 8l] |  |  | 4.0 |  |
| CCOc1ccc(Br)cc1/C=C/C(=O)c1c(O)cccc1OCc1ccccc1 [Chalcone 8o] | no significant change | no significant difference | 2.5 | PIV5 NP and P viral protein levels [5]: very little viral protein; Cells expressing ZIKV envelope (E) protein [1]: ~ 2%; Cells expressing OC43 NP protein [2]: 1-2%; Antiviral activity against HIV [6]: had efficacy as an antiviral agent |
| CCOc1ccc(Cl)cc1/C=C/C(=O)c1c(O)cccc1OCc1ccccc1 [Chalcone 8p] |  |  | 3.2 | Cells expressing ZIKV envelope (E) protein [1]: ~ 2%; Cells expressing OC43 NP protein [2]: 1-2% |
| COc1ccc(Br)cc1/C=C/C(=O)c1c(O)cccc1OCCC(C)C [Chalcone 8s, (2E)-3-(5-Bromo-2-Methoxy-Phenyl)-1-[2-Hydroxy-6-(3-Methyl-Butoxy)-Phenyl]-Propenone] | no significant change | significantly increased |  |  |
| CCOc1ccc(Br)cc1/C=C/C(=O)c1c(O)cccc1OCc1ccc(-c2ccccc2)cc1 [Chalcone 8v, (2E)-1-[2-(Biphenyl-4-Ylmethoxy)-6-Hydroxy-Phenyl]3-(5-Bromo-2-Ethoxy-Phenyl)-Propenone] | no significant change | no significant difference |  |  |
| COc1ccc(Br)cc1/C=C/C(=O)c1c(O)cccc1OCc1ccc(-c2ccccc2)cc1 [Chalcone 8w, (2E)-1-[2-(Biphenyl-4-Ylmethoxy)-6-Hydroxy-Phenyl]3-(5-Bromo-2-Methoxy-Phenyl)-Propenone] | no significant change | no significant difference |  |  |

Reference: PMC12467382, “Synthesis and Bioevaluation of Chalcones as Broad-Spectrum Antiviral Compounds Against Single-Stranded RNA Viruses” (Biomolecules, 2025)
